Data as given in the NIST ThermoML archive (doi:10.1016/j.jct.2014.05.015).
± gives the expanded uncertainty stated by the source.

Assays:
[1] = mn = molality of the nth substance listed, in mol/kg; conditions: 100 kPa, Liquid; for speed of sound: Frequency=3 MHz, Sing-around technique in a fixed-path interferometer; for mass density: Vibrating tube method
[2] = 100 kPa, Liquid

Structure (SMILES)	speed of sound ([1]; 293.15 K, m1 = 0.1) [m/s]	speed of sound ([1]; 293.15 K, m1 = 0.2) [m/s]	speed of sound ([1]; 293.15 K, m1 = 0.3) [m/s]	mass density ([1]; 293.15 K, m1 = 0.1) [kg/m3]	mass density ([1]; 293.15 K, m1 = 0.2) [kg/m3]	mass density ([1]; 293.15 K, m1 = 0.3) [kg/m3]	speed of sound ([1]; 298.15 K, m1 = 0.1) [m/s]	speed of sound ([1]; 298.15 K, m1 = 0.2) [m/s]	speed of sound ([1]; 298.15 K, m1 = 0.3) [m/s]	mass density ([1]; 298.15 K, m1 = 0.1) [kg/m3]	mass density ([1]; 298.15 K, m1 = 0.2) [kg/m3]	mass density ([1]; 298.15 K, m1 = 0.3) [kg/m3]	speed of sound ([1]; 303.15 K, m1 = 0.1) [m/s]	speed of sound ([1]; 303.15 K, m1 = 0.2) [m/s]	speed of sound ([1]; 303.15 K, m1 = 0.3) [m/s]	mass density ([1]; 303.15 K, m1 = 0.1) [kg/m3]	mass density ([1]; 303.15 K, m1 = 0.3) [kg/m3]	speed of sound ([1]; 308.15 K, m1 = 0.1) [m/s]	speed of sound ([1]; 308.15 K, m1 = 0.2) [m/s]	speed of sound ([1]; 308.15 K, m1 = 0.3) [m/s]	other results
O=C[C@H](O)[C@@H](O)[C@H](O)[C@H](O)CO [D-glucose] + O	1489.2 ± 1.6	1496 ± 1.6	1502.5 ± 1.6	1005.07 ± 0.26	1012.08 ± 0.27	1018.81 ± 0.27	1502.9 ± 1.6	1509.4 ± 1.6	1515.8 ± 1.6	1003.87 ± 0.26	1010.89 ± 0.27	1017.52 ± 0.27	1514.8 ± 1.6	1521.2 ± 1.6	1527.3 ± 1.6	1002.44 ± 0.26	1016.01 ± 0.27	1525.3 ± 1.6	1531.2 ± 1.6	1537.2 ± 1.6	mass density ([1]; 308.15 K, m1 = 0.1): 1000.79 ± 0.26 kg/m3; mass density ([1]; 308.15 K, m1 = 0.3): 1014.29 ± 0.27 kg/m3; speed of sound ([1]; 313.15 K, m1 = 0.1): 1534.1 ± 1.6 m/s; speed of sound ([1]; 313.15 K, m1 = 0.2): 1539.8 ± 1.6 m/s; speed of sound ([1]; 313.15 K, m1 = 0.3): 1545.7 ± 1.6 m/s; mass density ([1]; 313.15 K, m1 = 0.1): 998.945 ± 0.26 kg/m3; mass density ([1]; 313.15 K, m1 = 0.2): 1005.86 ± 0.26 kg/m3; mass density ([1]; 313.15 K, m1 = 0.3): 1012.36 ± 0.27 kg/m3
OC[C@H]1O[C@@](CO)(O[C@H]2O[C@H](CO)[C@@H](O)[C@H](O)[C@H]2O)[C@@H](O)[C@@H]1O [D-sucrose] + O	1492.3 ± 1.3	1502.4 ± 1.3	1512.9 ± 1.3	1011.49 ± 0.14	1024.67 ± 0.14	1037.84 ± 0.14	1505.9 ± 1.3	1515.7 ± 1.3	1525.7 ± 1.3	1010.26 ± 0.14	1023.37 ± 0.14	1036.47 ± 0.14	1517.8 ± 1.3	1527 ± 1.3	1536.8 ± 1.3	1008.81 ± 0.14	1034.89 ± 0.14	1528.1 ± 1.3	1536.9 ± 1.3	1546.3 ± 1.3	mass density ([1]; 303.15 K, m1 = 0.2): 1021.85 ± 0.14 kg/m3; mass density ([1]; 308.15 K, m1 = 0.1): 1007.14 ± 0.13 kg/m3; mass density ([1]; 308.15 K, m1 = 0.2): 1020.13 ± 0.14 kg/m3; mass density ([1]; 308.15 K, m1 = 0.3): 1033.11 ± 0.14 kg/m3; speed of sound ([1]; 313.15 K, m1 = 0.1): 1536.7 ± 1.3 m/s; speed of sound ([1]; 313.15 K, m1 = 0.2): 1545.4 ± 1.3 m/s; speed of sound ([1]; 313.15 K, m1 = 0.3): 1554.2 ± 1.4 m/s; mass density ([1]; 313.15 K, m1 = 0.1): 1005.28 ± 0.13 kg/m3; mass density ([1]; 313.15 K, m1 = 0.2): 1018.22 ± 0.14 kg/m3; mass density ([1]; 313.15 K, m1 = 0.3): 1031.16 ± 0.14 kg/m3
O [water]	–	–	–	–	–	–	–	–	–	–	–	–	–	–	–	–	–	–	–	–	mass density ([2]; 308.15 K, Vibrating tube method): 994.061 ± 0.26 kg/m3; speed of sound ([2]; 313.15 K, Frequency=3 MHz, Sing-around technique in a fixed-path interferometer): 1528.8 ± 1.6 m/s
